Measured values published in the supplement of paper PMC8149375.

Assays:
Settings in all cases: treatment: drug alone; 5 days
UO-31 [1] = test: minimum viability across doses, drug alone, relative to DMSO (fraction); higher = less growth inhibition
Protocol: (§1)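 Primary HTS: 8 RCC cell lines treated with 8 doses (up to 10 uM) of each library drug alone for 5 days; viability read by CellTiter-Glo and normalised to DMSO. GI50 was fitted with XLfit (4-parameter), AUC is the area under the dose-response curve, and minimum viability is the lowest fraction of DMSO viability across doses.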

769-P [2] = test: as above
Protocol: as §1

SN12C [3] = test: as above
Protocol: as §1

786-O [4] = test: as above
Protocol: as §1

TK-10 [5] = test: as above
Protocol: as §1

CAKI-1 [6] = test: as above
Protocol: as §1

A498 [7] = test: as above
Protocol: as §1

ACHN [8] = test: as above
Protocol: as §1

UO-31 [9] = test: GI50, drug alone; higher = less potent
Protocol: as §1

769-P [10] = test: GI50, drug alone; higher = less potent
Protocol: as §1

SN12C [11] = test: GI50, drug alone; higher = less potent
Protocol: as §1

786-O [12] = test: GI50, drug alone; higher = less potent
Protocol: as §1

TK-10 [13] = test: GI50, drug alone; higher = less potent
Protocol: as §1

CAKI-1 [14] = test: GI50, drug alone; higher = less potent
Protocol: as §1

A498 [15] = test: GI50, drug alone; higher = less potent
Protocol: as §1

ACHN [16] = test: GI50, drug alone; higher = less potent
Protocol: as §1

UO-31 [17] = test: AUC of dose-response viability curve, drug alone (arbitrary (AUC of normalised viability)); higher = less growth inhibition
Protocol: as §1

769-P [18] = test: as above
Protocol: as §1

SN12C [19] = test: as above
Protocol: as §1

786-O [20] = test: as above
Protocol: as §1

TK-10 [21] = test: as above
Protocol: as §1

CAKI-1 [22] = test: as above
Protocol: as §1

A498 [23] = test: as above
Protocol: as §1

ACHN [24] = test: as above
Protocol: as §1

Compound	minimum viability across doses (UO-31 [1])	minimum viability across doses (769-P [2])	minimum viability across doses (SN12C [3])	minimum viability across doses (786-O [4])	minimum viability across doses (TK-10 [5])	minimum viability across doses (CAKI-1 [6])	minimum viability across doses (A498 [7])	minimum viability across doses (ACHN [8])	GI50, drug alone (UO-31 [9]) [µM]	GI50, drug alone (769-P [10]) [µM]	GI50, drug alone (SN12C [11]) [µM]	GI50, drug alone (786-O [12]) [µM]	GI50, drug alone (TK-10 [13]) [µM]	GI50, drug alone (CAKI-1 [14]) [µM]	GI50, drug alone (A498 [15]) [µM]	GI50, drug alone (ACHN [16]) [µM]	AUC of dose-response viability curve (UO-31 [17])	AUC of dose-response viability curve (769-P [18])	AUC of dose-response viability curve (SN12C [19])	AUC of dose-response viability curve (786-O [20])	AUC of dose-response viability curve (TK-10 [21])	AUC of dose-response viability curve (CAKI-1 [22])	AUC of dose-response viability curve (A498 [23])	AUC of dose-response viability curve (ACHN [24])
Cn1cnc(N)c2ncnc1-2 [3-Methyladenine]	1.12	0.947	0.961	0.618	0.696	0.991	1.04	0.879	> 10	> 10	> 10	> 10	> 10	> 10	> 10	> 10	4.92	3.6	3.65	2.67	2.77	3.74	3.89	3.25
Cc1nc(NC(=O)N2CCC[C@H]2C(N)=O)sc1-c1csc(C(C)(C)C)n1 [A66]	0.757	0.823	0.659	0.418	0.631	0.805	0.787	0.803	> 10	> 10	> 10	5.72	> 10	> 10	> 10	> 10	3.47	3.33	2.94	2.57	2.93	3.36	3.34	3.42
CC1(C)CCC(CN2CCN(c3ccc(C(=O)NS(=O)(=O)c4ccc(NCC5CCOCC5)c([N+](=O)[O-])c4)c(Oc4cnc5[nH]ccc5c4)c3)CC2)=C(c2ccc(Cl)cc2)C1 [ABT-199 (GDC-0199 )]	1.02	0.88	0.821	0.442	0.617	0.846	0.915	0.847	> 10	> 10	> 10	< 0.003	> 10	> 10	> 10	> 10	3.98	3.47	3.19	2.19	3.06	3.28	3.73	3.16
CC1(C)CCC(c2ccc(Cl)cc2)=C(CN2CCN(c3ccc(C(=O)NS(=O)(=O)c4ccc(N[C@H](CCN5CCOCC5)CSc5ccccc5)c(S(=O)(=O)C(F)(F)F)c4)cc3)CC2)C1 [ABT-263 (Navitoclax)]	0.00527	0.0787	0.524	0.00566	0.163	0.603	0.622	0.0597	0.784	3.17	> 10	0.181	1.07	> 10	> 10	2.28	2.31	3.02	3.21	1.72	2.39	3.41	3	2.51
CN(C)CC[C@H](CSc1ccccc1)Nc1ccc(S(=O)(=O)NC(=O)c2ccc(N3CCN(Cc4ccccc4-c4ccc(Cl)cc4)CC3)cc2)cc1[N+](=O)[O-] [ABT-737]	0.00414	0.305	0.625	0.00151	0.253	0.952	0.1	0.206	3.08	9.18	> 10	0.501	4.57	> 10	5.36	5.69	4.03	3.47	3.25	1.66	2.43	3.76	3.25	2.88
CCN1CCN(Cc2ccc(-c3cc4c(N[C@H](C)c5ccccc5)ncnc4[nH]3)cc2)CC1 [AEE788 (NVP-AEE788)]	0.0104	0.0865	0.276	0.108	0.0159	0.0495	0.898	0.0622	7.87	1.64	4.79	8.51	0.581	3.19	> 10	0.415	3.98	2.61	2.77	3.45	2.13	2.81	3.87	2.1
N#C/C(=C\c1ccc(O)c(O)c1)C(=O)NCc1ccccc1 [AG-490]	0.843	0.823	0.788	0.369	0.615	0.948	1.04	0.301	> 10	> 10	> 10	5.99	> 10	> 10	> 10	7.43	4.19	3.27	3.37	2.89	3.21	3.57	3.87	3.09
CC(C)(C)c1cc(C=C(C#N)C#N)cc(Br)c1O [AG-1024]	1.24	0.853	0.919	0.729	0.791	0.846	1.02	0.904	> 10	> 10	> 10	> 10	> 10	> 10	> 10	> 10	4.79	3.41	3.53	2.78	3.13	3.65	3.94	3.56
COc1cc2ncnc(Nc3cccc(Cl)c3)c2cc1OC [AG-1478 (Tyrphostin AG-1478)]	0.795	0.481	0.813	0.179	0.472	0.628	1.01	0.37	> 10	3.24	> 10	5.49	2.85	> 10	> 10	1.16	4.04	2.48	2.95	2.32	2.36	2.91	4.85	2.24
COc1ccc2c(Oc3ccc(NC(=O)c4c(C)n(CC(C)(C)O)n(-c5ccccc5)c4=O)nc3)ccnc2c1 [AMG458]	0.597	0.971	0.71	0.25	0.66	0.449	0.859	0.262	> 10	> 10	> 10	4.55	> 10	8.65	> 10	4.79	3.98	3.55	3.13	2.82	3.29	3.32	3.66	3.03
Cc1csc(-c2nnc(Nc3ccc(Oc4ncccc4-c4ccnc(N)n4)cc3)c3ccccc23)c1 [AMG 900]	0.875	0.287	0.479	0.0401	0.561	0.425	0.776	0.231	> 10	0.109	4.57	0.0169	> 10	0.672	> 10	0.171	3.73	1.64	2.49	0.822	2.41	2.02	4.67	1.72
COc1ccc2c(OCc3nnc4ccc(-c5ccccc5)nn34)ccnc2c1 [AMG-208]	1.25	0.879	0.912	0.869	0.804	0.678	1.15	0.888	> 10	> 10	> 10	> 10	> 10	> 10	> 10	> 10	4.94	3.41	3.4	3.53	3.11	2.66	4.38	3.47
O=C1NC(=O)[C@@H](c2cn3c4c(cccc24)CCC3)[C@@H]1c1c[nH]c2ccccc12 [ARQ 197 (Tivantinib)]	0.0233	0.0795	0.251	0.00526	0.326	0.201	0.121	0.144	1.31	1.55	2.17	0.424	2.88	1.06	1.15	1.54	3.27	2.55	2.86	2.06	2.77	2.54	3	2.63
C=CC(=O)Nc1ccc2ncnc(Nc3ccc(OCc4cccc(F)c4)c(Cl)c3)c2c1.Cc1ccc(S(=O)(=O)O)cc1 [AST-1306]	1.05	0.048	0.188	0.0947	0.109	0.174	0.922	0.315	> 10	1.72	4.97	2.38	0.884	3.35	> 10	3.11	4.13	2.61	3.03	2.59	2.33	2.76	3.99	2.9
Cc1cc2c(C(C)C)c(O)c(O)c(C=O)c2c(O)c1-c1c(C)cc2c(C(C)C)c(O)c(O)c(C=O)c2c1O [AT101]	0.778	0.779	0.741	0.212	0.542	0.121	0.836	0.2	> 10	> 10	> 10	> 10	> 10	6.05	> 10	5.95	3.8	3.66	3.2	1.66	2.36	3.35	3.74	3.02
O=C(NC1CCNCC1)c1n[nH]cc1NC(=O)c1c(Cl)cccc1Cl [AT7519]	0.00638	0.0237	0.0108	0.00447	0.182	0.0613	0.00986	0.00881	0.415	1.91	0.431	0.375	1.04	0.9	0.455	0.946	3.04	2.78	2.14	2.23	2.32	2.23	2.45	2.35
Clc1ccc(C2(c3ccc(-c4cn[nH]c4)cc3)CCNCC2)cc1 [AT7867]	0.00617	0.338	0.212	0.00712	0.0799	0.155	0.263	0.0705	0.249	6.56	5.46	1.11	3.73	4.09	7.63	2.57	2.21	3.02	3.13	2.05	2.84	2.8	3.49	2.89
O=C(Nc1c[nH]nc1-c1nc2cc(CN3CCOCC3)ccc2[nH]1)NC1CC1 [AT9283]	0.00945	0.0255	0.00789	0.00681	0.0596	0.0418	0.0125	0.0159	0.25	0.241	1.1	0.1	0.456	0.414	0.777	0.344	2.05	1.97	2.63	1.58	2.1	2.22	2.74	1.86
